No end group written: not given here.
Assays:
[1] = test system: Bordatella bronchiseptica (Bb); type: cell-based
Method: (§1) The following strains were assessed vs. Staphylococcus epidermidis (Se), Pseudomonas aeruginosa (Pa), Streptococcus dysgalactiae (Sd), Pasteurella multocida (Pm), Streptococcus agalactiae (Sa), Streptococcus uberis (Su), Streptococcus suis (Ss), Mannheimia haemolytica (Mh), Bordatella bronchiseptica (Bb), Histophilus somnus (Hs), and Staphylococcus pseudintermedius (Sp) (Table 18) for Minimal Inhibitory Concentrations (MIC). Italics=excellent activity (less than or equal to 4 μg/ml).

Histophilus somnus (Hs) [2] = type: cell-based
Method: as §1

[3] = test system: Mannheimia haemolytica (Mh); type: cell-based
Method: as §1

[4] = test system: Pasteurella multocida (Pm); type: cell-based
Method: as §1

[5] = test system: Pseudomonas aeruginosa (Pa); type: cell-based
Method: as §1

[6] = test system: Staphylococcus epidermidis (Se); type: cell-based
Method: as §1

[7] = test system: Staphylococcus pseudintermedius (Sp); type: cell-based
Method: as §1

[8] = test system: Streptococcus agalactiae (Sa); type: cell-based
Method: as §1

[9] = test system: Streptococcus dysgalactiae (Sd); type: cell-based
Method: as §1

Streptococcus suis (Ss) [10] = type: cell-based
Method: as §1

[11] = test system: Streptococcus uberis (Su); type: cell-based
Method: as §1

E. coli (Ec) [12] = type: cell-based; settings: Ec
S. aureus (Sau) [13] = type: cell-based; settings: Sau
[14] = test system: Bordatella bronchiseptica (Bb); type: cell-based; remark: listed apart in the source
Method: (§2) The same strains as in Table 18 were assessed for Minimal Biofilm Inhibitory Concentrations (MBIC) (Table 19). Italics=excellent activity (less than or equal to 4 μg/ml). ND=Not determined. Peptides 3013, 3015 and 3016 inhibited biofilm growth in the largest number of bacterial strains (5, 5 and 6 out of 13 strains, respectively).

Histophilus somnus (Hs) [15] = type: cell-based; remark: listed apart in the source
Method: as §2

[16] = test system: Pasteurella multocida (Pm); type: cell-based; remark: listed apart in the source
Method: as §2

[17] = test system: Pseudomonas aeruginosa (Pa); type: cell-based; remark: listed apart in the source
Method: as §2

[18] = test system: Staphylococcus epidermidis (Se); type: cell-based; remark: listed apart in the source
Method: as §2

[19] = test system: Staphylococcus pseudintermedius (Sp); type: cell-based; remark: listed apart in the source
Method: as §2

[20] = test system: Streptococcus agalactiae (Sa); type: cell-based; remark: listed apart in the source
Method: as §2

[21] = test system: Streptococcus dysgalactiae (Sd); type: cell-based; remark: listed apart in the source
Method: as §2

Streptococcus suis (Ss) [22] = type: cell-based; remark: listed apart in the source
Method: as §2

[23] = test system: Streptococcus uberis (Su); type: cell-based; remark: listed apart in the source
Method: as §2

E. coli (Ec) [24] = type: cell-based; settings: Ec; remark: listed apart in the source
Method: as §2
(§3) In addition, several peptides expressed preferential activity vs. biofilms (MBIC) cf. planktonic cells (MIC) (Table 20).

S. aureus (Sau) [25] = type: cell-based; settings: Sau; remark: listed apart in the source
Method: as §2, §3

[26] = test system: planktonic methicillin resistant S. aureus; test: microbe, parasite or virus in culture; type: cell-based, Staphylococcus aureus; settings: planktonic methicillin resistant
PBMCs = test: Cytotoxicity towards PBMCs, lactate dehydrogenase (LDH) release assay (Tables 6, 7); settings: SPOT synthesized peptide ~25 μM, PBMCs from 3 human donors; Table 6
[27] = test system: Mannheimia haemolytica (Mh); type: cell-based; remark: listed apart in the source
Method: as §2

Substance | MIC Bb [1] [µg/mL] | MIC Hs (Histophilus somnus (Hs) [2]) [µg/mL] | MIC Mh [3] [µg/mL] | MIC Pm [4] [µg/mL] | MIC Pa [5] [µg/mL] | MIC Se [6] [µg/mL] | MIC Sp [7] [µg/mL] | MIC Sa [8] [µg/mL] | MIC Sd [9] [µg/mL] | MIC Ss (Streptococcus suis (Ss) [10]) [µg/mL] | MIC Su [11] [µg/mL] | MIC E. coli (E. coli (Ec) [12]) [µg/mL] | MIC Ec (E. coli (Ec) [12]) [µg/mL] | MIC S. aureus (S. aureus (Sau) [13]) [µg/mL] | MIC Sau (S. aureus (Sau) [13]) [µg/mL] | MBIC [14] [µg/mL] | MBIC (Histophilus somnus (Hs) [15]) [µg/mL] | MBIC [16] [µg/mL] | MBIC [17] [µg/mL] | MBIC [18] [µg/mL] | also measured
AVAKWALKLWKQ-NH2 [Peptide 3009, AVAKWALKLWKQ] | >64 | 64 | >64 | >64 | >64 | >64 | 4 | >64 | 32 | >64 | 32 | >64 | >64 | >64 | >64 | 64 | 16 | 16 | >64 | >64 | MBIC [19]: 8 µg/mL; MBIC [20]: >64 µg/mL; MBIC [21]: 16 µg/mL; MBIC (Streptococcus suis (Ss) [22]): 16 µg/mL; MBIC [23]: 16 µg/mL; MBIC (E. coli (Ec) [24]): 32 µg/mL; MBIC E. coli (E. coli (Ec) [24]): 32 µg/mL; MBIC (S. aureus (Sau) [25]): 64 µg/mL; MBIC S. aureus (S. aureus (Sau) [25]): 64 µg/mL; MIC (μM) MHB [26]: >64 µM; MIC (μM) TSB with 1% Glucose [26]: >64 µM; % Toxicity (LDH Release) (PBMCs): −3.2%
AVKWLGWILAKK-NH2 [Peptide 3016, AVKWLGWILAKK] | 64 | 16 | >64 | >64 | >64 | >64 | 8 | 8 | >64 | 32 | 16 | 64 | 64 | >64 | >64 | 64 | 4 | 8 | 32 | 4 | MBIC [27]: >64 µg/mL; MBIC [19]: 8 µg/mL; MBIC [20]: 64 µg/mL; MBIC [21]: >64 µg/mL; MBIC (Streptococcus suis (Ss) [22]): 32 µg/mL; MBIC [23]: 8 µg/mL; MBIC (E. coli (Ec) [24]): 32 µg/mL; MBIC E. coli (E. coli (Ec) [24]): 32 µg/mL; MBIC (S. aureus (Sau) [25]): 4 µg/mL; MBIC S. aureus (S. aureus (Sau) [25]): 4 µg/mL; MIC (μM) MHB [26]: >64 µM; MIC (μM) TSB with 1% Glucose [26]: >64 µM; % Toxicity (LDH Release) (PBMCs): 0.8%
KIVIRIILQVIK-NH2 [Peptide 3015, KIVIRIILQVIK] | 64 | >64 | >64 | 64 | 64 | >64 | 16 | >64 | 32 | 64 | 64 | >64 | >64 | >64 | >64 | >64 | 16 | 1 | 32 | 2 | MBIC [27]: 16 µg/mL; MBIC [19]: 8 µg/mL; MBIC [20]: >64 µg/mL; MBIC [21]: 4 µg/mL; MBIC (Streptococcus suis (Ss) [22]): 64 µg/mL; MBIC [23]: 4 µg/mL; MBIC (E. coli (Ec) [24]): 64 µg/mL; MBIC E. coli (E. coli (Ec) [24]): 64 µg/mL; MBIC (S. aureus (Sau) [25]): 64 µg/mL; MBIC S. aureus (S. aureus (Sau) [25]): 64 µg/mL; MIC (μM) MHB [26]: 64 µM; MIC (μM) TSB with 1% Glucose [26]: >64 µM; % Toxicity (LDH Release) (PBMCs): −3.8%
LAGLIVKWAGVR-NH2 [Peptide 3017, LAGLIVKWAGVR] | >64 | >64 | >64 | >64 | >64 | >64 | >64 | 32 | >64 | >64 | 64 | >64 | >64 | >64 | >64 | >64 | 32 | >64 | >64 | >64 | MBIC [27]: >64 µg/mL; MBIC [19]: 64 µg/mL; MBIC [20]: >64 µg/mL; MBIC [21]: >64 µg/mL; MBIC (Streptococcus suis (Ss) [22]): >64 µg/mL; MBIC [23]: 16 µg/mL; MBIC (E. coli (Ec) [24]): >64 µg/mL; MBIC E. coli (E. coli (Ec) [24]): >64 µg/mL; MBIC (S. aureus (Sau) [25]): 4 µg/mL; MBIC S. aureus (S. aureus (Sau) [25]): 4 µg/mL; MIC (μM) MHB [26]: >64 µM; MIC (μM) TSB with 1% Glucose [26]: >64 µM; % Toxicity (LDH Release) (PBMCs): 5.9%
LWQLWLKLKLKG-NH2 [Peptide 3013, LWQLWLKLKLKG] | 16 | 2 | >64 | 32 | >64 | 2 | <1 | 2 | 2 | 64 | 4 | >64 | >64 | >64 | >64 | >64 | 4 | 2 | >64 | >64 | MBIC [27]: >64 µg/mL; MBIC [19]: 1 µg/mL; MBIC [20]: 32 µg/mL; MBIC [21]: 2 µg/mL; MBIC (Streptococcus suis (Ss) [22]): 16 µg/mL; MBIC [23]: 8 µg/mL; MBIC (E. coli (Ec) [24]): >64 µg/mL; MBIC E. coli (E. coli (Ec) [24]): >64 µg/mL; MBIC (S. aureus (Sau) [25]): 32 µg/mL; MBIC S. aureus (S. aureus (Sau) [25]): 32 µg/mL; MIC (μM) MHB [26]: 32 µM; MIC (μM) TSB with 1% Glucose [26]: >64 µM; % Toxicity (LDH Release) (PBMCs): 14.1%
QLARLARVVWGL-NH2 [Peptide 3010, QLARLARVVWGL] | >64 | 64 | >64 | >64 | >64 | >64 | 64 | >64 | 32 | >64 | 64 | >64 | >64 | >64 | >64 | >64 | 64 | 4 | >64 | >64 | MBIC [27]: >64 µg/mL; MBIC [19]: 64 µg/mL; MBIC [20]: >64 µg/mL; MBIC [21]: 16 µg/mL; MBIC (Streptococcus suis (Ss) [22]): >64 µg/mL; MBIC [23]: 32 µg/mL; MBIC (E. coli (Ec) [24]): 32 µg/mL; MBIC E. coli (E. coli (Ec) [24]): 32 µg/mL; MBIC (S. aureus (Sau) [25]): 64 µg/mL; MBIC S. aureus (S. aureus (Sau) [25]): 64 µg/mL; MIC (μM) MHB [26]: >64 µM; MIC (μM) TSB with 1% Glucose [26]: >64 µM; % Toxicity (LDH Release) (PBMCs): −2.4%
